molecular target: human NaV 1.8 channels stably expressed in HEK 293 cells (Homo sapiens (Human), UniProt Q9Y5Y9); assay: Nav1.8 Qube automated patch-clamp assay; format: cell-based; settings: human NaV1.8 in HEK 293 cells, whole-cell voltage clamp, room temperature; read-out: IC50 values (nM) for Examples in the Nav1.8 Qube Assay
Procedure: Compounds were tested on human NaV 1.8 and NaV1.5 channels stably expressed in human embryo kidney (HEK) 293 cells. Sodium current measurements on Qube® were conducted as follows: automated 384-well patch-clamp assays on the Qube® platform (Sophion Biosciences) were used to measure the inhibition of sodium flow through human NaV1.8 and NaV1.5 channels. Whole-cell voltage-clamp recordings were performed in QChips® (Sophion Biosciences) at room temperature. NaV1.8 current measurements on Qube® were obtained as follows: NaV1.8 currents were elicited with a 10 second 1 Hertz (Hz) pulse train from a holding potential of −90 millivolts (mV), delivered to the cells once per minute in the control condition (DMSO only) and after compound addition. The 1 hertz pulse train stimulation consisted of ten test pulses to 10 millivolt (mV) for 20 milliseconds (ms), each of which was followed by a 980 millisecond repolarization to −67 millivolts. At the end of the 10 second pulse train stimulation, a 5 second hyperpolarization step to −100 millivolt (mV) was used to recover NaV1.8 from fast inactivation. The peak currents elicited by the 1st and 10th test pulses were used to determine IC50 values for resting inhibition and inactivated state inhibition. NaV1.5 current measurements on Qube® were obtained as follows: NaV1.5 currents were elicited with a 20 second 3 Hertz pulse train in the control condition (DMSO only) and after compound addition. The pulse train consisted of sixty 20 millisecond test pulses to 0 millivolt from a holding potential of −80 millivolt (mV). The average peak currents elicited by the last 3 test pulses were used to determine IC50 values for NaV1.5 inhibition.
The following buffers were used for the Qube® recordings: External buffer for NaV1.8 Qube® recording: 150 NaCl, 2 CaCl2, 5 KCl, 1 MgCl2, 10 HEPES, 12 Dextrose; External buffer for Qube® NaV1.5 recording: 120 N-Methyl-D-Glucamine, 40 NaCl, 1 KCl, 2.7 CaCl2), 5 HEPES, 0.5 MgCl2; and Internal buffer for Qube® recording: 120 CsF, 30 CsCl, 10 EGTA, 5 HEPES, 5 NaF, 2 MgCl2.
For all Qube® experiments offline analysis was used to determine percent inhibition as a function of drug concentration. IC50 values were determined by fitting to the Hill equation.

human NaV 1.8 channels stably expressed in HEK 293 cells, sequence (Q9Y5Y9 whole entry): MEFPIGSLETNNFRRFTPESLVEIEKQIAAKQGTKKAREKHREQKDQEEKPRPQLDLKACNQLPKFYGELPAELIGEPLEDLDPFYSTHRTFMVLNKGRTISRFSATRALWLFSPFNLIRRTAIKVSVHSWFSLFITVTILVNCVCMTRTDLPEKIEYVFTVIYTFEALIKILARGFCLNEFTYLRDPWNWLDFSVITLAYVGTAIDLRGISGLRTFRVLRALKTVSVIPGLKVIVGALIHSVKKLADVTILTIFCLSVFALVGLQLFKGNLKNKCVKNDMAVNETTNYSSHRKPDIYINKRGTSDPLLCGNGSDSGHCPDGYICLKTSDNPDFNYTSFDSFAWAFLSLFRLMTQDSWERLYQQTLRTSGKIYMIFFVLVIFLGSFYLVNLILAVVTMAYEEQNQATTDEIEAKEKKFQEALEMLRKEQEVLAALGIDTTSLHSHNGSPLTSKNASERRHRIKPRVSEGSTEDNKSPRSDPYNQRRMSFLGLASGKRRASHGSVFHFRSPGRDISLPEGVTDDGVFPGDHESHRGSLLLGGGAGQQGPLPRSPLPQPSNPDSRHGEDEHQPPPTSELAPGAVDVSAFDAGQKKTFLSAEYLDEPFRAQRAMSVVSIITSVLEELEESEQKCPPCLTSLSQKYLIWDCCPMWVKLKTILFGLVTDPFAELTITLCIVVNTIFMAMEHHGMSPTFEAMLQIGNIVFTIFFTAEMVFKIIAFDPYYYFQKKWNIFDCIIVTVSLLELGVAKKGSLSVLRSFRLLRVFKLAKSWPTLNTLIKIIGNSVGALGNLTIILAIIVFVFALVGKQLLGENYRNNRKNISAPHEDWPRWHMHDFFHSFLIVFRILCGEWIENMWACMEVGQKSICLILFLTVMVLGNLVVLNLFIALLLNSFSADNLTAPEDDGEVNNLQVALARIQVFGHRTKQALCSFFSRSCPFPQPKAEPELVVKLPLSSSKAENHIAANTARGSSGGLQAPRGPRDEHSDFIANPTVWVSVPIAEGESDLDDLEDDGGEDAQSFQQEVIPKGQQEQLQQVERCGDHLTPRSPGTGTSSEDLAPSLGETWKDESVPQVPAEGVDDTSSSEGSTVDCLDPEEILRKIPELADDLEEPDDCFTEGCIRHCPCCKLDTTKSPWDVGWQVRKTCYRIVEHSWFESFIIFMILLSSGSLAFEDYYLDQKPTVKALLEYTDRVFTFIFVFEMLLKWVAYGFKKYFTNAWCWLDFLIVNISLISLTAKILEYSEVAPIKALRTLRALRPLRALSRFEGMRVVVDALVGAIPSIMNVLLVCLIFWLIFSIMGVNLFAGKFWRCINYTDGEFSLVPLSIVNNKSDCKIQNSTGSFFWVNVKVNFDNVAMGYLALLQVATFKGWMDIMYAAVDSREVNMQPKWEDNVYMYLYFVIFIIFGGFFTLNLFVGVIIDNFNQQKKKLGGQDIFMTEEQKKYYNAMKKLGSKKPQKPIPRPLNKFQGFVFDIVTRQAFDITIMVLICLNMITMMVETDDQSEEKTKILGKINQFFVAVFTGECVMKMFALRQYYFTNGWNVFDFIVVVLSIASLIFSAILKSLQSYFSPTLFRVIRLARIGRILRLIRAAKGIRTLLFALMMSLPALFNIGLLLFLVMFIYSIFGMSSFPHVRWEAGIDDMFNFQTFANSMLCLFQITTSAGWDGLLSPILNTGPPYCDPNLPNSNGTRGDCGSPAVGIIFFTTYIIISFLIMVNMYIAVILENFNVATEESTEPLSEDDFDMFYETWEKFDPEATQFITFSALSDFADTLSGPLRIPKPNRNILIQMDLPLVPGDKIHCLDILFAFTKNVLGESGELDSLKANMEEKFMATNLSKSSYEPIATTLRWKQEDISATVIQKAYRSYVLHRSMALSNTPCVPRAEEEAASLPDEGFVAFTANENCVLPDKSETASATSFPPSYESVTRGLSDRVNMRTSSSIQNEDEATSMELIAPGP

SMILES | IC50 [nM]
C[C@@H]1C(=O)NCCN1C(=O)NC(c1ccc(OC(F)F)nc1)c1ccc(F)c(Cl)c1 (single isomer, unassigned) [Example 73B, (2R)-N-((R or S)-(3-chloro-4-fluoro-phenyl)(6-(difluoro-methoxy)pyridin-3-yl)methyl)-2-methyl-3-oxopiperazine-1-carboxamide] | 20.6
O=C1NCCN(C(=O)NC(c2cnc(C(F)(F)F)nc2)c2ccc(F)c(Cl)c2F)C1C1CC1 (single isomer, unassigned) [Example 41A, N-((R or S)-(3-chloro-2,4-difluorophenyl)(2-(trifluoromethyl)pyrimidin-5-yl)methyl)-(R or S)-2-cyclopropyl-3-oxopiperazine-1-carboxamide] | 2020
C[C@@H]1C(=O)NCCN1C(=O)NC(c1ccc(OC(F)(F)F)c(Cl)c1)c1coc(C(F)(F)F)n1 (single isomer, unassigned) [Example 64B, (2R)-N-((S or R)-(3-chloro-4-(trifluoro-methoxy)phenyl)(2-(trifluoromethyl)oxazol-4-yl)methyl)-2-methyl-3-oxopiperazine-1-carboxamide] | 3.5
C[C@@H]1C(=O)NCCN1C(=O)NC(c1ccc(Cl)cc1)c1ccc(C(F)(F)F)nc1 (single isomer, unassigned) [Example 17A, (2R)-N-((R or S)-(4-chlorophenyl)(6-(trifluoromethyl)pyridin-3-yl)methyl)-2-methyl-3-oxopiperazine-1-carboxamide] | 101
C[C@@H]1C(=O)NCCN1C(=O)NC(c1ccc(OC(F)F)nc1)c1ccc(F)c(Cl)c1 (single isomer, unassigned) [Example 73A, (2R)-N-((R or S)-(3-chloro-4-fluorophenyl)(6-(difluoromethoxy)pyridin-3-yl)methyl)-2-methyl-3-oxopiperazine-1-carboxamide] | 7.01

More lines, now with the values ahead:

IC50 [nM] | SMILES
2.19 | C[C@@H]1C(=O)NCCN1C(=O)NC(c1ccc(F)c(C(F)(F)F)n1)c1ccc(F)c(Cl)c1F (single isomer, unassigned) [Example 60A, (2R)-N-((R or S)-(3-chloro-2,4-difluoro-phenyl)(5-fluoro-6-(trifluoromethyl)pyridin-2-yl)methyl)-2-methyl-3-oxopiperazine-1-carboxamide]
4.94 | O=C1NCCN(C(=O)NC(c2cnc(C(F)(F)F)nc2)c2ccc(F)c(Cl)c2F)C1C1CC1 (single isomer, unassigned) [Example 41B, N-((R or S)-(3-chloro-2,4-difluorophenyl)(2-(trifluoromethyl)pyrimidin-5-yl)methyl)-(S or R)-2-cyclopropyl-3-oxopiperazine-1-carboxamide]
8.55 | C[C@@H]1C(=O)NCCN1C(=O)NC(c1ccc(F)c(Cl)c1)c1cccc(C(F)(F)F)n1 (single isomer, unassigned) [Example 44]
729 | CCC1C(=O)NCCN1C(=O)NC(c1ccc(C(F)(F)F)nc1)c1ccc(F)c(Cl)c1F (single isomer, unassigned) [Example 40A, N-((R or S)-(3-chloro-2,4-difluorophenyl)(6-(trifluoromethyl)pyridin-3-yl)methyl)-(R or S)-2-ethyl-3-oxopiperazine-1-carboxamide]
71.1 | C[C@@H]1C(=O)NCCN1C(=O)NC(c1cnc(OC(F)F)nc1)c1ccc(F)c(Cl)c1F (single isomer, unassigned) [Example 74A, (2R)-N-((R or S)-(3-chloro-2,4-difluoro-phenyl)(2-(difluoro-methoxy)pyrimidin-5-yl)methyl)-2-methyl-3-oxopiperazine-1-carboxamide]
1.06 | C[C@@H]1C(=O)NCCN1C(=O)NC(c1ccc(Cl)c(C(F)(F)F)n1)c1ccc(F)c(Cl)c1F (single isomer, unassigned) [Example 77B, (2R)-N-((S or R)-(3-chloro-2,4-difluorophenyl)(5-chloro-6-(trifluoromethyl)pyridin-2-yl)methyl)-2-methyl-3-oxopiperazine-1-carboxamide]
